Experiment: Light degradation under ICH photo condition
Format: physicochemical

COc1c(/C=C/c2ccc(NS(C)(=O)=O)cc2)cc(-n2ccc(=O)[nH]c2=O)cc1C(C)(C)C [Compound A, (E)-N-(4-(3-tert-butyl-5-(2,4-dioxo-3,4-dihydropyrimidin-1(2H)-yl)-2-methoxystyryl)phenyl)methanesulfonamide]
Stability in solution upon exposure to light: may convert into an alternative isomer

— patent US9248193B2, “Formulations of phenyl uracil compounds” (AbbVie Inc., priority 2011, dated 2016)
